Where “and” joins values, the source holds several entries; their conditions need not be identical. Equal values may be shown once.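 Following 48 hours of exposure in 96-well plates, responses at five concentrations were used to interpolate endpoints linearly. GI50: concentration for 50% inhibition of growth. TGI is the concentration that stops growth completely.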
Experiments:
Test in all cases: growth of human tumour cells (NCI), 48 h
COLO 205 colon = tested on: COLO 205 colon
EKVX NSCLC = tested on: EKVX NSCLC
HCT-116 colon = tested on: HCT-116 colon
HCT-15 colon = tested on: HCT-15 colon
HOP-62 NSCLC = tested on: HOP-62 NSCLC
HOP-92 NSCLC = tested on: HOP-92 NSCLC
KM12 colon = tested on: KM12 colon
OVCAR-8 ovarian = tested on: OVCAR-8 ovarian
RXF 393 renal = tested on: RXF 393 renal
SK-OV-3 ovarian = tested on: SK-OV-3 ovarian

Compound	GI50 (COLO 205 colon) [µM]	TGI (COLO 205 colon) [µM]	GI50 (EKVX NSCLC) [µM]	TGI (EKVX NSCLC) [µM]	GI50 (HCT-116 colon) [µM]	TGI (HCT-116 colon) [µM]	GI50 (HCT-15 colon) [µM]	TGI (HCT-15 colon) [µM]	GI50 (HOP-62 NSCLC) [µM]	TGI (HOP-62 NSCLC) [µM]	GI50 (HOP-92 NSCLC) [µM]	TGI (HOP-92 NSCLC) [µM]	GI50 (KM12 colon) [µM]	TGI (KM12 colon) [µM]	GI50 (OVCAR-8 ovarian) [µM]	TGI (OVCAR-8 ovarian) [µM]	GI50 (RXF 393 renal) [µM]	TGI (RXF 393 renal) [µM]	GI50 (SK-OV-3 ovarian) [µM]	TGI (SK-OV-3 ovarian)
Oc1cc(Cl)ccc1Oc1ccc(Cl)cc1Cl	3.88	13.3	3.04	11.9	2.55	6.43	3.31	10.9	2.27	5.16	2.11	5.69	3.6	12.7	2.81	9.18	2.06	5.09	2.97	7.86 µM
CC(C)(Br)C(=O)/C=C/c1ccccc1		22		23				4.63		15.6		18		43.6		5.2		3.12		> 83.1 µM
O=C(Nc1cc(Cl)c(Cl)cc1Cl)C(=O)C(C(=O)c1ccc(Cl)c(Cl)c1)C1OC(=O)c2ccccc21 (centres undefined)		33.8		58		28.8		40.3		25.3		31.4		33.6		28.5		21.9		> 100 µM
Cc1ccc2c(c1)ncn2-c1ncnc2c1CC(C)c1ccccc1N2C (centres undefined)	0.198	0.666	0.154	18	0.0669	13	0.0984	12.5	0.174	13.6	3.77	18.7	0.106	14.6	0.381	22.9	0.0577	16.4	0.139	17.7 µM
O=C(Nc1ccc2c(c1)oc(=O)c1ccccc12)C(Cl)Cl		> 100		> 100		> 100		> 100		> 100		> 100		> 100		> 100		> 100		
Cc1c(C)c2ccc(OC/C=C3\CCC(=O)O3)cc2oc1=O	16.4	48.9	18.7	40	13.3	26.3	5.4	20.2	15	28.8	15	31.2	13.8	31.3	16.5	34.8	14.2	28.2	26.5	93.1 µM
O=c1oc2ccc(Cl)cc2c(=O)n1-c1ccc(I)cc1F	7	19.7	0.444	4.98	0.255	1.35	0.231	6.74	0.855	3.75	0.0571	0.202	2.21	5.55	0.323	15	0.339	1.57	0.451	4.31 µM
C=C(C)CCC(C)N1CCC(N2CCC(C(=O)NCCc3ccccc3)CC2)CC1 (centres undefined)	13.4	33.8	9.27	> 100	16.8	> 100	16.7	57.6	68.9	> 100	13.4	62	54.6	> 100	27.8	> 100	14.8	43	21.2	77.3 µM
CCN1C(=O)N(CC)C2C1NN=c1s/c(=C3\C(=O)N(C)c4ccccc43)c(=O)n12 (centres undefined)	1.08	55.1	3.25	> 100	1.1	> 43.6	0.536	> 100	2.25	> 100	0.685	> 100	0.647	> 100	2.82	> 100	0.587	4.81	6.03	> 100 µM
O=C1CCC2(c3ccccc3)Nc3cc(Cl)ccc3N12 (centres undefined)		31.6		> 100				> 100		> 100		40.7		> 100		> 100		> 100		85.1 µM
Clc1ccc2nc(Oc3ccccc3)cnc2c1	> 100	> 100	> 100	> 100	> 100	> 100	> 100	> 100	> 100	> 100	14	> 100	> 100	> 100	> 100	> 100	> 100	> 100	> 100	> 100 µM
Fc1ccc(Nc2nccc(-c3c(-c4ccc(C(F)(F)F)cc4)nn4ncccc34)n2)cc1F	> 25	> 25	> 25	> 25	> 25	> 25	> 25	> 25	> 25	> 25	> 25	> 25	> 25	> 25	> 25	> 25	> 25	> 25	> 25	> 25 µM
O=[N+]([O-])c1ccc(CS(=O)Cc2ccccc2)cc1 (centres undefined)		> 100		> 100		> 100		> 100		> 100		> 100		> 100		> 100		> 100		> 100 µM
S=c1ssc(Sc2ccccn2)c1Cl	19.2	38.7	12.5	30.3			5.26	18.1	17.5	31.3	12.6	26.8	15.5	28.8	20.3	40.8	16.9	32.6	23.7	47.7 µM
O=c1[nH]cnc2c(C3OC(CO)C(O)C3O)scc12 (centres undefined)	> 100	> 100	> 100	> 100	> 100	> 100	60	> 100	46.9	> 100	5.03	> 100	> 100	> 100	54.8	> 100	> 100	> 100	> 100	> 100 µM
O=C1c2ccccc2C(=O)C1C(c1ccc([N+](=O)[O-])cc1)C1C(=O)c2ccccc2C1=O		> 100		> 100		49.3		> 100		> 100		> 100		> 100		72.8		32.9		> 100 µM
CC(=O)NC(CCCN(Cc1ccccc1)C(=O)N(CCCl)N=O)C(=O)NCc1ccccc1 (centres undefined)		> 100		> 100		> 100		> 100		46.3		> 91.8		> 100		> 100		68.9		> 100 µM

Compound	GI50 (COLO 205 colon) [µM]	TGI (COLO 205 colon) [µM]	GI50 (EKVX NSCLC) [µM]	TGI (EKVX NSCLC) [µM]	GI50 (HCT-116 colon) [µM]	TGI (HCT-116 colon) [µM]	GI50 (HCT-15 colon) [µM]	TGI (HCT-15 colon) [µM]	GI50 (HOP-62 NSCLC) [µM]	TGI (HOP-62 NSCLC) [µM]	GI50 (HOP-92 NSCLC) [µM]	TGI (HOP-92 NSCLC) [µM]	GI50 (KM12 colon) [µM]	TGI (KM12 colon) [µM]	GI50 (OVCAR-8 ovarian) [µM]	TGI (OVCAR-8 ovarian) [µM]	GI50 (RXF 393 renal) [µM]	TGI (RXF 393 renal) [µM]	GI50 (SK-OV-3 ovarian) [µM]	TGI (SK-OV-3 ovarian)
CN(C)c1ccc(N=Nc2c([O-])ccc3ccccc23)cc1.[C-]#[O+].[C-]#[O+].[Ir]	16.5	31.6	20.6	64.1	19.5	38.4	18.5	34.9	> 100	> 100	2.72	8.64	> 100	> 100	25	65.4	18.3	32.9	> 100	> 100 µM
CCOC(=O)N1C2C=C(C)C(C3C(C)C(=O)N31)N(C(=O)c1ccccc1)O2 (centres undefined)		> 100		> 100		> 100		> 100		> 100		> 100		> 100		> 100		> 100		> 100 µM
FC(F)(F)c1ccc2nc(Nc3ccc(Cl)c(Cl)c3)c(-c3ccccc3)nc2c1		> 100		> 100		> 100		> 100		> 100		> 100				> 100		> 100		
CCc1c[nH]c2ncnc(N3CC[C@@](N)(CNC(=O)c4ccc(F)cc4F)C3)c12	29.8	> 100	35	> 100	25	> 100	43.6	> 100	30.5	> 100	20.9	> 100	12.6	> 100	48.1	> 100	7.16	35.9	32	> 100 µM
CCc1c2c(nc3cccc(N)c13)-c1cc3c(c(=O)n1C2)COC(=O)[C@]3(O)CC	0.328		0.187	> 100				> 100	0.00143	4.29	0.00331		0.159		0.00224	> 100	0.0636		0.00719	4.13 µM and 13 µM
COc1cc2cc(Oc3ccc(NC(=O)c4ccc(Cl)c(C(F)(F)F)c4)cc3)c(C)nc2cc1OC	11.2	24	5.76	83.3	4.18	88.9	12.3	> 100	42.6	> 100	13.6	71.3	12.3	> 100	22.9	> 100	9.04	> 100	66	> 100 µM
CN(C)C(=O)C1CCC(=C2C(=O)OC(C)(C)OC2=O)N1C (centres undefined)		> 100		> 100		> 100		> 100		> 100		> 100		> 100		> 100		> 100		> 100 µM
CC(=O)Oc1ccccc1C(=O)C1c2cccc(O)c2C(=O)c2c(O)cccc21		1.86		6.15		3.41		9.56		3.4		3.76		1.59		4.34		1.46		1.68 µM
COc1ccc(COCC(Cn2ccnc2)OCc2ccc(C(=O)O)cc2)cc1 (centres undefined)		> 100		> 100		> 100		> 100		> 100		> 100		> 100		> 100		> 100		> 100 µM
CCOC(=O)c1cnn(-c2ccnc3c(C(F)(F)F)cccc23)c1N	> 100	> 100	> 100	> 100	> 100	> 100	> 100	> 100	> 100	> 100	29.6	> 100	> 100	> 100	> 100	> 100	> 100	> 100	> 100	> 100 µM
O=c1[nH]cc(OCC(F)(F)F)c(=O)[nH]1		> 100		> 100		> 100		> 100		> 100		> 100		> 100		> 100		> 100		> 100 µM
FC(F)(F)C12C34C=CC5(CCC6(C=CC1(CC3)O6)C52C(F)(F)F)O4 (centres undefined)		> 100		> 100		> 100				> 100		> 100		> 100		> 100		> 100		> 100 µM
CSc1nc(-c2ccccc2)c2c(n1)-c1ccccc1CC2		> 100		> 100		> 100				> 100		> 100		> 100		> 100		> 100		> 100 µM
N#Cc1ccccc1NC(=O)c1ccccc1		> 100		> 100		> 100		> 100		> 100		> 100		> 100		> 100		> 100		
COc1ccc2cc3n(c2c1)CCc1cc(OC)c(OC)cc1-3		> 100		> 100						> 100		> 100		> 100		> 100		> 100		> 100 µM
CC[CH2][Pb]([CH2]CC)([CH2]CC)[NH]S(=O)(=O)c1ccc(C)cc1	0.0236	0.0528	0.0739	0.317	0.0452	0.179	0.125	0.312	0.0909	0.422	0.036	0.161	0.147	0.312			0.0218	0.0869	0.0788	0.276 µM
